Test [1] concerns Plasmodium falciparum. Nature of the test: Antimalarial activity against chloroquine-sensitive Plasmodium falciparum D6 after 48 hrs by LDH reporter assay. The test is classed as functional, organism-based. Particulars: D6, 48 h. For orientation: In a reporter assay the amount or activity of a reporter protein is the signal.
In test [2] the test system is Plasmodium falciparum. Briefly: Antimalarial activity against chloroquine-resistant Plasmodium falciparum W2 after 48 hrs by LDH reporter assay. The test is classed as functional, organism-based. Particulars: W2, 48 h.

The structures appear in SMILES notation.

As to `C[C@@H]1CC[C@H]2[C@@H](C)C(=O)O[C@@H]3O[C@@]4(C)CC[C@@H]1[C@]32OO4` [ARTEMISININ], the IC50 stood at 9 nM with Plasmodium falciparum [1] (read-out: IC50) and 1 nM in the test on Plasmodium falciparum [2] (read-out: IC50).
As for `O=C(CCCCCCCC(=O)NO)NO` [AZELAIC BIS HYDROXAMIC ACID], the IC50 with Plasmodium falciparum [1] (read-out: IC50) was 5500 nM; in the test with Plasmodium falciparum [1] (read-out: pIC50 (converted)), 5500 nM; in the test on Plasmodium falciparum [2] (read-out: IC50) it was 3900 nM; in the test with Plasmodium falciparum [2] (read-out: pIC50 (converted)), 3890 nM.
As to `O=C(NO)c1ccccc1O` [SALICYLHYDROXAMIC ACID], the IC50 in the test on Plasmodium falciparum [1] (read-out: IC50) was 35700 nM; with Plasmodium falciparum [1] (read-out: pIC50 (converted)), 35500 nM; in the test with Plasmodium falciparum [2] (read-out: IC50), 51300 nM; in the test with Plasmodium falciparum [2] (read-out: pIC50 (converted)), 51300 nM.
For `O=C(CCCCCCC(=O)NO)NO` [SUBEROHYDROXAMIC ACID], the IC50 in the test on Plasmodium falciparum [1] (read-out: IC50) was 2230 nM; with Plasmodium falciparum [1] (read-out: pIC50 (converted)), 2240 nM; in the test with Plasmodium falciparum [2] (read-out: IC50), 1530 nM; with Plasmodium falciparum [2] (read-out: pIC50 (converted)) it was 1510 nM.
For `CC(/C=C/C(=O)NO)=C\[C@@H](C)C(=O)c1ccc(N(C)C)cc1` [TRICHOSTATIN] the same measures were 15.6 nM, 15.5 nM, 10 nM and 9.77 nM.

The record behind these values is ChEMBL document CHEMBL1157182, “Structural insights into the Plasmodium falciparum histone deacetylase 1 (PfHDAC-1): A novel target for the development of antimalarial therapy” (Bioorg Med Chem, 2008).
